Patent publication US20250177396A1, “POLO-LIKE KINASE 4 (PLK4) INHIBITORS, PHARMACEUTICAL COMPOSITIONS, METHODS OF PREPARATION AND USES THEREOF” (Repare Therapeutics Inc., priority 2022, published 2025)
pIC50: −log10 of the molar value.

Molecular target: T1, PLK4 (Homo sapiens, UniProt O00444)
T1 construct: expressed in transfected cells; host or cells: HEK293 T cells (ATCC CRL-3216)
T1 sequence (O00444 1-970): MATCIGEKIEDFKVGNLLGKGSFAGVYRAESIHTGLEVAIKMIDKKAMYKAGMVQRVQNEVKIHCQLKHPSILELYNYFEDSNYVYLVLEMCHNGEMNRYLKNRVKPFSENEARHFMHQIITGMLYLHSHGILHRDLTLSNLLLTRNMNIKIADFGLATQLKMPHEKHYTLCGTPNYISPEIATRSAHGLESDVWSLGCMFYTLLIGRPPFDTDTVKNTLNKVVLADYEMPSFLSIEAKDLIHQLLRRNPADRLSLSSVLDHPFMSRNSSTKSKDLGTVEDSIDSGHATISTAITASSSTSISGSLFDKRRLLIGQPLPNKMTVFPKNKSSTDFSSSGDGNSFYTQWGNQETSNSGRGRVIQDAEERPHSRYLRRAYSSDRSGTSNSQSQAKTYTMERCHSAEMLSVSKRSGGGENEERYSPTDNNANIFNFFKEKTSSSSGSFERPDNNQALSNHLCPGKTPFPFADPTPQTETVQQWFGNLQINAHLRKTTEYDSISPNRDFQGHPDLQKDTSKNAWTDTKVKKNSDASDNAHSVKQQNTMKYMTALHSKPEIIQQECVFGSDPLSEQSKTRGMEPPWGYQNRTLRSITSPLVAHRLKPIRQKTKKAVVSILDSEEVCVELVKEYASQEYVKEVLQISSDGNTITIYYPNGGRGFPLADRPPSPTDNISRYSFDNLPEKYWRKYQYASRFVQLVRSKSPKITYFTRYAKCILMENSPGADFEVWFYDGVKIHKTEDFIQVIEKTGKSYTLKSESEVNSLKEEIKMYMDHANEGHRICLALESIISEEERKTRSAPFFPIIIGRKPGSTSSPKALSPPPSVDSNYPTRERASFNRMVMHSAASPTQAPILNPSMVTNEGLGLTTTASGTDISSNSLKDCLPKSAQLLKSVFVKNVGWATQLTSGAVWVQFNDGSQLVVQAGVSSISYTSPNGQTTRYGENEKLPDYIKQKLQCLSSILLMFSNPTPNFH
Assay: PLK4 NanoBRET target engagement assay
Format: binding
Details: HEK293 T cells transfected with PLK4 NanoLuc fusion vector; K-5 tracer; 2 hrs incubation
Method in brief: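 HEK293T cells transiently expressing PLK4-NanoLuc, plated at 17000 cells/well with K-5 tracer and compound, incubated 2 h at 37 °C/5% CO2. After substrate/inhibitor mix, 610/450 nm emission ratio ×1000 gave mBRET; IC50 from 4-parameter fit.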

Row | Structure (SMILES) | pIC50
1 | Cc1cc(Nc2nc(N(C)c3c(F)cc(S(C)(=O)=O)cc3F)nc(-c3cn(C)c(C)n3)c2C2CC2)n[nH]1 [Compound 124] | 8.70
2 | Cc1cc(Nc2nc(N(C)c3c(F)cc(S(C)(=O)=O)cc3F)nc(-c3ccn(C)n3)c2C2CC2)n[nH]1 [Compound 13, 5-cyclopropyl-N^2-(2,6-difluoro-4-(methylsulfonyl)phenyl)-N^2-methyl-6-(1-methyl-1H-pyrazol-3-yl)-N^4-(5-methyl-1H-pyrazol-3-yl)pyrimidine-2,4-diamine] | 8.30
3 | Cc1cc(Nc2nc(N(C)c3c(F)cc(S(C)(=O)=O)cc3F)nc(-c3cn(C(F)F)cn3)c2C2CC2)n[nH]1 [Compound 128] | 8.22
4 | Cc1cc(Nc2nc(N(C)c3c(F)cc(S(C)(=O)=O)cc3F)nc(-c3cnn(C)c3C(O)(O)C(F)(F)F)c2C2CC2)n[nH]1 [Compound 306] | 7.03
5 | Cc1cc(Nc2nc(N(C)c3c(F)cc(S(C)(=O)=O)cc3F)nc(-c3cnn(C)c3C(C)O)c2C2CC2)n[nH]1 (stereo not shown) [Compound 312] | 7.82
6 | Cc1cc(Nc2nc(Sc3ccc(S(C)(=O)=O)cc3F)cc(-c3cnn(C)c3)c2C2CC2)n[nH]1 [Compound 94] | 6.96
7 | Cc1cc(Nc2nc(N(C)c3ccc(S(C)(=O)=O)cc3Br)nc(-c3cnn(C)c3)c2C2CC2)n[nH]1 [Compound 53] | 7.20
8 | COc1c(Nc2cc(C)[nH]n2)nc(Oc2ccc(S(C)(=O)=O)cc2Cl)nc1-c1cnn(C)c1 [Compound 34] | 6.05
9 | Cc1cc(Nc2nc(N(C)c3c(F)cc(S(C)(=O)=O)cc3F)nc(-c3cnn(C)n3)c2C2CC2)n[nH]1 [Compound 104] | 7.82
10 | Cc1cc(Nc2nc(N(C)c3c(F)cc(S(C)(=O)=O)cc3F)nc(-c3cn(C4CCOCC4)nc3C)c2C2CC2)n[nH]1 [Compound 185] | 7.68
11 | COc1c(Nc2cc(C)[nH]n2)nc(N(C)c2ccc(Oc3nccs3)cc2)nc1-c1cnn(C)c1 [Compound 69] | 6.15
12 | CC(=O)N1CCC(c2cc(F)c(N(C)c3nc(Nc4cc(C)[nH]n4)c(C4CC4)c(-c4cn(C)cn4)n3)c(F)c2)CC1 [Compound 349] | 7.34
13 | Cc1cc(Nc2nc(N(C)c3c(F)cc(S(C)(=O)=O)cc3F)nc(-c3nn(C)cc3C(N)=O)c2C2CC2)n[nH]1 [Compound 281] | 6.47
14 | Cc1cc(Nc2nc(N(C)c3c(F)cc(S(C)(=O)=O)cc3F)nc(-c3ncn(C)c3C(=O)N(C)C)c2C2CC2)n[nH]1 [Compound 274] | 5.51
15 | COCCCS(=O)(=O)c1ccc(N(C)c2nc(Nc3cc(C)[nH]n3)c(OC)c(-c3cnn(C)c3)n2)cc1 [Compound 67] | 6.57
16 | Cc1cc(Nc2nc(N(C)c3c(F)cc(S(C)(=O)=O)cc3F)nc(-c3cn(C)c(C#N)n3)c2C2CC2)n[nH]1 [Compound 204] | 8.10
17 | Cc1cc(Nc2nc(N(C)c3cc(F)c(S(C)(=O)=O)cc3F)nc(-c3ccn(CCO)n3)c2C2CC2)n[nH]1 [Compound 230] | 7.59
18 | Cc1cc(Nc2nc(N(C)c3c(F)cc(S(C)(=O)=O)cc3F)nc(-c3cn(C4CC(O)C4)nc3C)c2C2CC2)n[nH]1 (stereo not shown) [Compound 365] | 8.40
19 | Cc1cc(Nc2nc(N(C)c3c(F)cc(S(C)(=O)=O)cc3F)nc(N3CC(n4ccnc4)C3)c2C2CC2)n[nH]1 [Compound 236] | 7.06
20 | Cc1cc(Nc2nc(N(C)c3c(F)cc(S(C)(=O)=O)cc3F)nc(-c3c[nH]nc3C)c2C2CC2)n[nH]1 [Compound 122] | 8.10
21 | Cc1cc(Nc2nc(N(C)c3c(F)cc(S(C)(=O)=O)cc3F)nc(-c3nccn3C)c2C2CC2)n[nH]1 [Compound 142] | 7.89
22 | COc1c(Nc2cc(C)[nH]n2)nc(N(CCN(C)C)c2ccc(S(C)(=O)=O)cc2F)nc1-c1cnn(C)c1 [Compound 77] | 6.24
23 | Cc1cc(Nc2nc(N(C)c3cc(F)c(S(C)(=O)=O)cc3F)nc(-c3cnn([C@H]4CC[C@H](O)CC4)c3)c2C2CC2)n[nH]1 [Compound 223] | 8.05

Next, values leading:

Row | pIC50 | Structure (SMILES)
24 | 5.32 | COc1c(Nc2cc(C)[nH]n2)nc(N(C)c2ccc(S(C)(=O)=O)cc2F)c(C)c1-c1cnn(C)c1 [Compound 99]
25 | 6.70 | Cc1cc(Nc2nc(Nc3ccc(S(C)(=O)=O)cc3F)nc(-c3cn(C)cn3)c2C2CC2)n[nH]1 [Compound 16, 5-cyclopropyl-N^2-(2-fluoro-4-(methylsulfonyl)phenyl)-6-(1-methyl-1H-imidazol-4-yl)-N^4-(5-methyl-1H-pyrazol-3-yl)pyrimidine-2,4-diamine]
26 | 6.54 | COc1c(Nc2cc(C)[nH]n2)nc(N(C)c2ccc(CN(C)C(=O)c3ccccc3)cc2F)nc1-c1cnn(C)c1 [Compound 52]
27 | 7.62 | Cc1cc(Nc2nc(N(C)c3c(F)cc(C#N)cc3F)nc(-c3cn(C)cn3)c2C2CC2)n[nH]1 [Compound 339]
28 | 7.70 | Cc1cc(Nc2nc(N(C)c3ccc(S(C)(=O)=O)cc3F)nc(-c3cn(C)cn3)c2C2CC2)n[nH]1 [Compound 17, 5-cyclopropyl-N^2-(2-fluoro-4-(methylsulfonyl)phenyl)-N^2-methyl-6-(1-methyl-1H-imidazol-4-yl)-N^4-(5-methyl-1H-pyrazol-3-yl)pyrimidine-2,4-diamine]
29 | 8.10 | Cc1cc(Nc2nc(N(C)c3c(F)cc(S(C)(=O)=O)cc3F)nc(-c3cnc4n3CCOC4)c2C2CC2)n[nH]1 [Compound 302]
30 | 8.05 | Cc1cc(Nc2nc(N(C)c3c(F)cc(S(C)(=O)=O)cc3F)nc(-c3cnn(C)c3C(C)(C)O)c2C2CC2)n[nH]1 [Compound 294]
31 | 8.05 | Cc1cc(Nc2nc(N(C)c3ccc(S(C)(=O)=O)cc3F)nc(-c3cn(C4CC4)cn3)c2C2CC2)n[nH]1 [Compound 208]
32 | 6.85 | Cc1csc(-c2nc(N(C)c3ccc(S(C)(=O)=O)cc3F)nc(Nc3cc(C)[nH]n3)c2C2CC2)n1 [Compound 45]
33 | 8.40 | Cc1cc(Nc2nc(N(C)c3c(F)cc(S(C)(=O)=O)cc3F)nc(-c3cn(C4CC4)cn3)c2C2CC2)n[nH]1 [Compound 148]
34 | 6.68 | COc1c(Nc2cc(C)[nH]n2)nc(Nc2ccc(S(C)(=O)=O)cc2F)c(C)c1-c1cnn(C)c1 [Compound 23, N^2-(2-fluoro-4-(methylsulfonyl)phenyl)-5-methoxy-3-methyl-N^6-(5-methyl-1H-pyrazol-3-yl)-4-(1-methyl-1H-pyrazol-4-yl)pyridine-2,6-diamine]
35 | 6.74 | Cc1cc(Nc2nc(N(C)c3ccc(S(C)(=O)=O)cc3F)nc(-c3cnnn3C)c2C2CC2)n[nH]1 [Compound 43]
36 | 7.72 | CC(=O)c1c(-c2nc(N(C)c3c(F)cc(S(C)(=O)=O)cc3F)nc(Nc3cc(C)[nH]n3)c2C2CC2)cnn1C [Compound 307]
37 | 8.40 | Cc1cc(Nc2nc(N(C)c3c(F)cc(S(C)(=O)=O)cc3F)nc(-c3cn(C4COC4)nc3C)c2C2CC2)n[nH]1 [Compound 180]
38 | 7.31 | Cc1cc(Nc2nc(N(C)c3ccc(S(C)(=O)=O)cc3F)nc(-c3cnn(C)n3)c2C2CC2)n[nH]1 [Compound 109]
39 | 7.37 | Cc1cc(Nc2nc(N(C)c3ccc(S(C)(=O)=O)cc3F)nc(N3CCCC(S(C)(=O)=O)C3)c2C2CC2)n[nH]1 (stereo not shown) [Compound 111, 5-cyclopropyl-N^2-(2-fluoro-4-(methylsulfonyl)phenyl)-N^2-methyl-N^4-(5-methyl-1H-pyrazol-3-yl)-6-(3-(methylsulfonyl)piperidin-1-yl)pyrimidine-2,4-diamine]
40 | 7.92 | COCCn1cc(-c2nc(N(C)c3cc(F)c(S(C)(=O)=O)cc3F)nc(Nc3cc(C)[nH]n3)c2C2CC2)c(C)n1 [Compound 221]
